Laboratory results: patent publication EP0532027B1, “Cyclic nitrones, their preparation and pharmaceutical compositions containing them” (MERRELL PHARMACEUTICALS INC., priority 1991, dated 1993)

Experiments:
Interleukin-1 = assay: Blood levels of interleukin-1 in endotoxin-treated mice (ELISA); type: in vivo, male Charles-Dawley mice; details: mice given endotoxin and test compound, endotoxin alone 58.3, vehicle without endotoxin 29.2
Method: Normal 7 week old male Charles-Dawley mice were utilized in the assay. The mice were injected with vehicle and a baseline blood level of IL-1 was established by an IL-1 specific ELISA ninety (90) minutes after administration. The animals were then administered both endotoxin and vehicle and a blood level of IL-1 was determined. Finally the animals were administered endotoxin and the test compound and the effect upon IL-1 blood levels was determined.

gerbils [1] = assay: Gerbil model of stroke (cerebral ischemia/reperfusion); type: in vivo; details: for protective effect in gerbil model: 32 mg/kg, Figure V; for locomotor activity of ischemic gerbils: pretreated 30 minutes prior to ischemic event, Figure III
From the text: One of the primary therapeutic uses of pharmaceutical compositions containing these compounds will be in the treatment of stroke. Strokes are associated with cerebral ischemia. Initially, it was thought that the CNS damage that often accompanies a stroke was a direct result of the tissues being deprived of oxygen. Recent research has shown that most of the damage occurs when the tissues are reoxygenated during reperfusion. […] Gastroenterology, 82, 9-15 (1982). Oliver et al has shown that a significant amount of this damage occurs due to free oxygen radicals and the oxidation sequence which they initiate, Proc. Natl. Acad. Sci. USA, vol. 87, pp 5144-5147 July 1990. […] In this model the carotid arteries of gerbils are constricted surgically and after a predetermined period, the constriction is removed so that surrounding tissues may be reperfused. CNS damage, which occurs upon reperfusion, can be measured by the level of protein oxidation that occurs in the brain or by examining the gerbil's behavior. […] Oliver et al and Phillis et al have also shown similar results with PBN, supra and Neuroscience Letter, 116 (1990) 315-319.
The compound, 3,4-dihydro-3,3-dimethylisoquinoline N-oxide which was the product of Example I (hereinafter compound) was tested in a gerbil model as described above. The exact procedure utilized is described by Chandler et al. in Journal of Pharmacological Methods Vol. 14, pages 137-146 (1985). Figures I-V summarize the results that were obtained.
Figure I depicts the effect the compound had on the motor activity of non-ischemic gerbils.
Figure II depicts the effects that ischemia has upon the gerbils locomotor activity.
The gerbils were pretreated with the compound 30 minutes prior to initiation of the ischemic event.
Figure IV compares the neuronal loss of ischemic gerbils receiving various doses of compound with both control gerbils and non-ischemic gerbils.
All compounds were administered at 32 mg/kg. […] Compound A represents the product of Example I, F = Example III, and G = Example II.

[2] = tested on: INTERLEUKIN-1 RELEASE BY HUMAN MACROPHAGES; assay: Inhibition of interleukin-1 release by endotoxin-stimulated human macrophages (ELISA); type: cell-based; details: Macrophage, two million macrophages stimulated with 20 nanograms endotoxin for 24 hours, IL-1 in supernatant
From the text: These include arthritis, psoriasis, athersclerosis, and diabetes. […] One such in-vitro assay is based upon the fact that when human macrophages are exposed to endotoxin, the macrophages secrete IL-1.
The in-vitro studies of IL-1 production was facilitated by a specific property of macrophages, i. e. attachment to non-self, e.g. plastic surface. In this assay, human peripheral blood monocyte-derived macrophages were enriched by plastic adherence. Two million of these macrophages were stimulated with 20 nanograms of endotoxin for 24 hours. Culture supernatants were then collected and the levels of IL-1 were assayed by enzyme-linked immuno-sorbent assay (ELISA). The same assay was repeated except that it was done in the presence of the test compound. The assay was repeated until an IC50 was calculated.

ENDOTOXIN TREATED RATS = assay: Animal model of septic shock: survival of endotoxin treated rats; type: in vivo, Male Sprague Dawley rats; details: 72 hours after endotoxin
Method: In this test rats were injected with endotoxin and a control survival rate was determined. Other groups of rats were pretreated with one of the compounds of Formula I at varied dosages and then administered endotoxin and the survival rates were compared. This test was conducted in the following manner. Male Sprague Dawley rats were utilized (weight 215g-300g) in each test group. Endotoxin (30mg/kg) was administered intraperitoneally (IP). A test compound or vehicle was administered IP 30 minutes prior to endotoxin administration. The following results were obtained: TABLE III

[3] = Inhibition of oxidation of soy PC liposome initiated with hydrogen peroxide and Fe2+ (thiobarbituric acid readout); type: biochemical; details: amount required to inhibit 100% of oxidation of soy liposome over 15 minutes; 50uM H2O2, 50uM Fe2+, 37°C, pH 7.0
From the text: One such assay is based upon the fact that the lipid, soybean phosphatidylcholine, readily undergoes oxidation. This oxidation may be initiated by a variety of oxidizing agents such as Fe^2+ and H2O2, or 2,2'-azobis-(2-amidinopropane). A spin trapping agent will decrease the rate at which the lipid undergoes oxidation in this assay. This assay is described in detail in: a) Nilsson, U.A., Olsson, L-I, Carlin, G. and Bylund-Fellenius, A-C. (1989) Inhibition of lipid peroxidation by spin labels. Relationships between structure and function. J. Biol. Chem. 264:11131-11135; and b) Aust, S.D. (1985). Lipid peroxidation. In Handbook of Methods for Oxygen Radical Research. (Greenwald, R.A., ed.) CRC Press, Inc. Boca Raton, Florida, pp. 203-207.
Soybean phosphatidylcholine (PC) was obtained from commercial suppliers such as Sigma or Avanti Polar Lipids. The soy PC was dissolved in ethanol achieving a final concentration of 0.563mM. […]
The ability of a compound to inhibit oxidation of the soy PC liposome was evaluated in the following manner. […]
The samples were heated at 100°C for 20 minutes, cooled and centrifuged. The absorbance of the resulting supernatant was determined at 532-580nm. Quantitation of the thiobarbituric acid/oxidized PC complex was determined by comparison to a standard curve of malondialdehyde equivalents generated by acid catalysed hydrolysis of 1,1,3,3-tetraethoxypropane. […]

[4] = Inhibition of oxidation of soy PC liposome by Fe2+/histidine-Fe3+ (thiobarbituric acid readout); type: biochemical; details: histidine/Fe3+ 250:50uM, initiated with 50 uM Fe2+; 15 minutes, 37°C
[5] = tested on: animal models of circulatory shock; details: literature (Hamburger & McCay; Novelli et al.); cited from earlier work
gerbils [6] = details: literature (Floyd; Oliver et al; Phillis et al); versus control animals; cited from earlier work
myocardial tissues = details: literature (Bolli et al); cited from earlier work
[7] = dose 10 mg/kg IP 30 minutes prior to endotoxin (30mg/kg IP)
[8] = dose 30 mg/kg IP 30 minutes prior to endotoxin (30mg/kg IP)
[9] = dose 3 mg/kg IP 30 minutes prior to endotoxin (30mg/kg IP)

## [O-][N+]1=Cc2ccccc2CC12CCCC2 [Example III, Spiro [cyclopentane-1,3']-[1H]dihydroisoquinoline 2-oxide]
Interleukin-1
  IL-1 (picrogram/ml-serum): 10.2 picrogram/ml-serum
Gerbils [1]
  protective effect in gerbil model: protective effect
[2]
  IC50: 100 µM
ENDOTOXIN TREATED RATS; [7]
  % Surviving: 17%
  Survival Rate: 2/12
ENDOTOXIN TREATED RATS; [8]
  % Surviving: 91%
  Survival Rate: 10/11
[3]
  IC100 Required to prevent Oxidation of Soybean Phosphatidylcholne by Fe^+2/H202: 0.3 mM
[4]
  IC100 Required to prevent Oxidation of Soybean Phosphatidylcholne by Fe^+2/histidine-Fe^3+: 0.7 mM

## CC1(C)Cc2ccccc2C=[N+]1[O-] [Example I, 3,4-Dihydro-3,3-dimethylisoquinoline N-oxide]
Interleukin-1
  IL-1 (picrogram/ml-serum): 6.4 picrogram/ml-serum
Gerbils [1]; 30mg/kg
  locomotor activity of ischemic gerbils: significantly decreased
Gerbils [1]
  protective effect in gerbil model: protective effect
Gerbils [1]; 100mg/kg
  locomotor activity of ischemic gerbils: significantly decreased
Gerbils [1]; non-ischemic gerbils, Figure I
  locomotor activity of non-ischemic gerbils: no effect
Gerbils [1]; various doses, versus control and non-ischemic gerbils, Figure IV
  neuronal loss of ischemic gerbils: saved significant amounts of neuronal tissue
[2]
  IC50: 330 µM
ENDOTOXIN TREATED RATS; [9]
  % Surviving: 33%
  Survival Rate: 4/12
ENDOTOXIN TREATED RATS; [7]
  % Surviving: 58%
  Survival Rate: 7/12
ENDOTOXIN TREATED RATS; [8]
  % Surviving: 83%
  Survival Rate: 10/12

## CC(C)(C)[N+]([O-])=Cc1ccccc1 [PBN, α-phenyl N-tert-butyl nitrone]
[5]
  survival in animal models of circulatory shock: significantly increase survival
Gerbils [6]
  CNS damage in gerbil model of stroke: less CNS damage
Myocardial tissues
  myocardial dysfunction occurring after reperfusion: decreases the amount of myocardial dysfunction

## [O-][N+]1=Cc2ccccc2CC12CCCCC2 [Example II, Sprio [cyclohexane-1,3']-3,4-dihydroisoquinoline-N-oxide]
Interleukin-1
  IL-1 (picrogram/ml-serum): 4.7 picrogram/ml-serum
Gerbils [1]
  protective effect in gerbil model: protective effect
[2]
  IC50: 200 µM
ENDOTOXIN TREATED RATS; [9]
  % Surviving: 30%
  Survival Rate: 3/10
ENDOTOXIN TREATED RATS; [7]
  % Surviving: 91%
  Survival Rate: 19/23
[3]
  IC100 Required to prevent Oxidation of Soybean Phosphatidylcholne by Fe^+2/H202: 0.1 mM
[4]
  IC100 Required to prevent Oxidation of Soybean Phosphatidylcholne by Fe^+2/histidine-Fe^3+: 0.3 mM
